Among the data in patent US9873709B2 (priority 2013, dated 2018) are IC50 values, retold here.

The subject of the assay is JAK1-dependent STAT6 phosphorylation downstream of IL-13 stimulation in TF-1 human erythroleukemia cells. Kind of assay: cells. The settings on record: TF-1, read-out: IL-13-pSTAT6 IC50.
For orientation: IC50 means the concentration that gives 50% inhibition. In the case of `CNCCNC(=O)c1ccc(Nc2nc3c(C4=CCN(C(=O)CCC(F)(F)F)CC4)cccn3n2)cc1` [Example 2-31, N-[2-(methylamino)ethyl]-4-[[8-[1-(4,4,4-trifluorobutanoyl)-3,6-dihydro-2H-pyridin-4-yl]-[1,2,4]triazolo[1,5-a]pyridin-2-yl]amino]benzamide], the IC50 was found to be 181 nM.

With `O=C(NCCN1CCNCC1)c1ccc(Nc2nc3c(C4=CCN(C(=O)CCC(F)(F)F)CC4)cccn3n2)cc1` [Example 2-32, N-(2-piperazin-1-ylethyl)-4-[[8-[1-(4,4,4-trifluorobutanoyl)-3,6-dihydro-2H-pyridin-4-yl]-[1,2,4]triazolo[1,5-a]pyridin-2-yl]amino]benzamide], the IC50 came to 536 nM. In the case of `O=C(CCC(F)(F)F)N1CC=C(c2cccn3nc(Nc4ccc(C(=O)N5CCNCC5CO)cc4)nc23)CC1` (stereo not shown) [Example 2-33, 4,4,4-trifluoro-1-[4-[2-[4-[2-(hydroxymethyl)piperazine-1-carbonyl]anilino]-[1,2,4]triazolo[1,5-a]pyridin-8-yl]-3,6-dihydro-2H-pyridin-1-yl]butan-1-one], the IC50 was determined as 23.3 nM. The result for `O=C(CCC(F)(F)F)N1CC=C(c2cccn3nc(Nc4ccc(C(=O)N5CCCCC56CCCNC6)cc4)nc23)CC1` (stereo not shown) [Example 2-34, 1-[4-[2-[4-(1,8-diazaspiro[5.5]undecane-1-carbonyl)anilino]-[1,2,4]triazolo[1,5-a]pyridin-8-yl]-3,6-dihydro-2H-pyridin-1-yl]-4,4,4-trifluoro-butan-1-one] reads 352 nM. On to `O=C(CCC(F)(F)F)N1CC=C(c2cccn3nc(Nc4ccc(C(=O)N5CC6(CCNC6)C5)cc4)nc23)CC1` [Example 2-35, 1-[4-[2-[4-(2,7-diazaspiro[3.4]octane-2-carbonyl)anilino]-[1,2,4]triazolo[1,5-a]pyridin-8-yl]-3,6-dihydro-2H-pyridin-1-yl]-4,4,4-trifluoro-butan-1-one], for which the IC50 stood at 95 nM. Turning to `O=C(CCC(F)(F)F)N1CC=C(c2cccn3nc(Nc4ccc(C(=O)N5CC6CNCC(C5)O6)cc4)nc23)CC1` [Example 2-37, 4,4,4-trifluoro-1-[4-[2-[4-(9-oxa-3,7-diazabicyclo[3.3.1]nonane-3-carbonyl)anilino]-[1,2,4]triazolo[1,5-a]pyridin-8-yl]-3,6-dihydro-2H-pyridin-1-yl]butan-1-one], the IC50 came to 85.4 nM. On to `CCN1CCC(CN(C)C(=O)c2ccc(Nc3nc4c(C5=CCN(C(=O)CCC(F)(F)F)CC5)cccn4n3)cc2)C1` (stereo not shown) [Example 2-39, N-[(1-ethylpyrrolidin-3-yl)methyl]-N-methyl-4-[[8-[1-(4,4,4-trifluorobutanoyl)-3,6-dihydro-2H-pyridin-4-yl]-[1,2,4]triazolo[1,5-a]pyridin-2-yl]amino]benzamide], for which the IC50 amounted to 34.7 nM. As for `Cc1ccnc(CNC(=O)c2ccc(Nc3nc4c(C5=CCN(C(=O)CCC(F)(F)F)CC5)cccn4n3)cc2)c1` [Example 2-41, N-[(4-methyl-2-pyridyl)methyl]-4-[[8-[1-(4,4,4-trifluorobutanoyl)-3,6-dihydro-2H-pyridin-4-yl]-[1,2,4]triazolo[1,5-a]pyridin-2-yl]amino]benzamide], the IC50 amounted to 5.2 nM. In the case of `Cc1ncccc1CNC(=O)c1ccc(Nc2nc3c(C4=CCN(C(=O)CCC(F)(F)F)CC4)cccn3n2)cc1` [Example 2-42, N-[(2-methyl-3-pyridyl)methyl]-4-[[8-[1-(4,4,4-trifluorobutanoyl)-3,6-dihydro-2H-pyridin-4-yl]-[1,2,4]triazolo[1,5-a]pyridin-2-yl]amino]benzamide], the 50% inhibitory concentration (IC50) was 4.7 nM. For the molecule `CC(CC(=O)N1CC=C(c2cccn3nc(Nc4ccc(C(=O)N(C)C5CCN(C)CC5)cc4)nc23)CC1)C(F)(F)F` (stereo not shown) [Example 2-43, N-methyl-N-(1-methyl-4-piperidyl)-4-[[8-[1-(4,4,4-trifluoro-3-methyl-butanoyl)-3,6-dihydro-2H-pyridin-4-yl]-[1,2,4]triazolo[1,5-a]pyridin-2-yl]amino]benzamide], the IC50 turned out to be 27.8 nM.
